According to patent publication US10059699B2, “Tetrahydroquinoline derivatives as bromodomain inhibitors” (GlaxoSmithKline Intellectual Property (No.2) Limited, priority 2014, dated 2018):
Like-named read-outs stand apart in the source and are kept apart here.

Experiments:
[1] = system: NUT midline carcinoma cells (11060); experiment: Cancer cell line proliferation assay, 11060; assay type: cell-based; conditions: 11060 cells, 72 hours, CellTiter Glo, n = 3
Description: (§1) The impact of the compound of Examples 7 and 14 on cancer cell proliferation was determined using patient derived NUT midline carcinoma cells (11060), multiple myeloma cells (OPM-2, DSMZ) and biphenotypic B myelomonocytic leukaemia cells (MV-4-11, ATCC) in a 72 hour proliferation assay. 11060 and OPM-2 cells were maintained in RPMI 1640 medium (Invitrogen) supplemented with 10% HI-FBS (Heat-Inactivated Fetal Bovine Serum, Hyclone) and 2 mM L-glutamine (Invitrogen) at 37° C. and an atmosphere of 5% CO2. MV-4-11 cells were maintained in IMDM media supplemented with 10% HI-FCS, 2 mM L-glutamine, 1× Non-essential amino acids (Invitrogen) and 1× sodium pyruvate (1 mM) (Invitrogen). Cells were diluted to 1.11×10^5 cells/mL and 90 μL/well plated into black sided, clear bottomed 96 well tissue culture plates (Corning), using growth media supplemented with penicillin/streptomycin (Invitrogen). Cells were incubated overnight at 37° C. and in one plate, ATP levels were measured using the CellTiter Glo assay (Promega) according to the manufacturer's instructions, to give a baseline reading (t=0). 3-fold serial dilutions of compounds ranging from 6 mM to 0.3 μM were prepared in 100% DMSO. The DMSO dilution series was diluted 20-fold in growth media before 10 μl of the resulting dilutions were added to the appropriate wells of the remaining cell plates. The final compound concentrations in the wells ranged from 30 μM to 1.5 nM in 0.5% DMSO. Cells were incubated with compounds for 72 hours before assaying for ATP content using CellTiter Glo (t=72). CellTiter Glo data from each t=72 time point was normalised to the relevant t=0 time point data, and expressed as % t=0.

[2] = system: multiple myeloma cells (OPM-2); experiment: Cancer cell line proliferation assay, OPM-2; assay type: cell-based; conditions: Homo sapiens, OPM-2 cells, 72 hours, CellTiter Glo, n = 2
Description: as §1

[3] = system: biphenotypic B myelomonocytic leukaemia cells (MV-4-11); experiment: Cancer cell line proliferation assay, MV-4-11; assay type: cell-based; conditions: Homo sapiens, MV4-11, MV-4-11 cells, 72 hours, CellTiter Glo, n = 3
Description: as §1

[4] = system: Bromodomains BRD2, BRD3, BRD4 and BRDT; experiment: Fluoroligand affinity for mutated vs non-mutated bromodomain; parameters: species or system Human; conditions: single residue mutations in the acetyl lysine binding pocket
Description: The binding of the compounds of formulae (I)-(XVI) to Bromodomains BRD2, BRD3, BRD4 and BRDT was assessed using mutated proteins to detect differential binding to either Binding Domain 1 (BD1) or Binding Domain 2 (BD2) on the bromodomain. These single residue mutations in the acetyl lysine binding pocket greatly lower the affinity of the fluoroligand (Reference Compound X) for the mutated domain (>1000 fold selective for the non-mutated domain). Therefore in the final assay conditions, binding of the fluoroligand to the mutated domain cannot be detected and subsequently the assay is suitable to determine the binding of compounds to the single non-mutated bromodomain. […]

[5] = full curve fit, read-out: Cellular Proliferation: pIC50 (converted)
[6] = read-out: Cellular Proliferation: gpIC50 (converted)

| IC50 [1, 5] [nM] | IC50 [1, 6] [nM] | IC50 [2, 5] [nM] | IC50 [2, 6] [nM] | IC50 [3, 5] [nM] | IC50 [3, 6] [nM] | Structure (SMILES) | selectivity for the non-mutated domain over the mutated domain [4] [fold] |
| --- | --- | --- | --- | --- | --- | --- | --- |
| 631 | 398 | 100 | 50.1 | 200 | 158 | CC(=O)N1c2ccc(C(N)=O)cc2[C@H](Nc2ncc(Cl)cn2)[C@@H](C)[C@@H]1C [Example 7, (2S,3R,4R)-1-acetyl-4-((5-chloropyrimidin-2-yl)amino)-2,3-dimethyl-1,2,3,4-tetrahydroquinoline-6-carboxamide] |  |
|  |  |  |  |  |  | COc1ccc2c(c1)C(c1ccc(Cl)cc1)=N[C@@H](CC(=O)NCCCCCNC(=O)CCCCCC1(C)/C(=C/C=C/C=C/C3=[N+](CCCCS(=O)(=O)O)c4ccc(S(=O)(=O)O)cc4C3(C)C)N(CCCCS(=O)(=O)[O-])c3ccc(S(=O)(=O)O)cc31)c1nnc(C)n1-2 (stereo partly shown) [Reference Compound X] | > 1000 |
